How the values were obtained:
[1] = system: Pseudomonas aeruginosa PA-RR-(G8062859); assay: MIC determination; format: cell-based; details: Pseudomonas aeruginosa; PA-RR-(G8062859); CAMH broth, 20 μM Apo-Transferrin, 37° C., 18 hours; read-out: Minimum Inhibitory Concentrations, PA-RR-(G8062859)
Procedure, shortened: (§1)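 Growth inhibition was judged by well clarity after 18 h at 37 °C in transferrin-supplemented (20 μM apo form) CAMH. Standardized suspensions (0.08-0.1 OD600) were added within 30 min of preparation.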

[2] = system: Pseudomonas aeruginosa PA-RR-(purple Fre D); assay: MIC determination; format: cell-based; details: Pseudomonas aeruginosa, CAMH broth, 20 μM Apo-Transferrin, 37° C., 18 hours, read-out: Minimum Inhibitory Concentrations, PA-RR-(purple Fre D)
Procedure, shortened: as §1

EC (RR -1) = assay: MIC determination; format: cell-based, Escherichia coli; details: CAMH broth, 20 μM Apo-Transferrin, 37° C., 18 hours
Method: (§2) Sterile technique was used throughout these experiments. Suspensions of organisms were removed from storage (−80° C.) and partially thawed. Partially thawed organisms (1 μL) were inoculated into 3 mL sterile LB Broth in a sterile culture tube and capped, then cultured at 37° C. with shaking for 4-5 hours until the optical density at 600 nm (OD600) was greater than 0.1 on a single beam spectrophotometer.
(§3) The concentration of organisms was adjusted to 0.08-0.1 OD600 (0.5 McFarland units) by dilution with sterile cation-adjusted Meuller-Hinton (CAMH) broth. The suspensions were used within 30 minutes of preparation.
(§4) A stock solution was made of each test compound by measuring 6.4 mg of the compound on an analytical balance and dissolving it in DMSO (1 mL) to get a transparent solution. The solutions were stored at −20° C. and thawed prior to use.
(§5) Sterile CAMH broth (200 μL) containing 20 μM Apo-Transferrin was pipetted into the first row of 8 columns of a sterile, round-bottomed, transparent, 96-well microplate using an 8-channel pipette equipped with sterile tips. One hundred μL was pipetted into the wells of the remaining 11 rows.
(§6) With an 8-channel pipette equipped with sterile tips, 100 μL of the first row solution was transferred to the second row and mixed. The process was repeated for the second to third rows and continued through row 11. One hundred μL from row 11 was removed and discarded so that all 12 rows contained 100 μL. Row 12 contained no compound and rows 1-11 contained 64, 32, 16, 8, 4, 2, 1, 0.5, 0.25, 0.125, […] of a given compound.
(§7) Inoculant suspensions (0.5 μL) were added to the 12 wells of each column. The plates were then covered and incubated at 37° C. overnight for 18 hours.
(§8) For each organism the MIC was determined by identifying the transparent well with the lowest test compound concentration.

EC (RR -2) = assay: MIC determination; format: cell-based, Escherichia coli; details: CAMH broth, 20 μM Apo-Transferrin, 37° C., 18 hours
Method: as §2, §3, §4, §5, §6, §7, §8

EC (URMC-1) = assay: MIC determination; format: cell-based, Escherichia coli; details: Escherichia coli, CAMH broth, 20 μM Apo-Transferrin, 37° C., 18 hours, read-out: Minimum Inhibitory Concentrations, EC (URMC-1)
Method: as §2, §3, §4, §5, §6, §7, §8

EC (URMC-2) = assay: MIC determination; format: cell-based, Escherichia coli; details: Escherichia coli, CAMH broth, 20 μM Apo-Transferrin, 37° C., 18 hours, read-out: Minimum Inhibitory Concentrations, EC (URMC-2)
Method: as §2, §3, §4, §5, §6, §7, §8

EC (URMC-3) = assay: MIC determination; format: cell-based, Escherichia coli; details: Escherichia coli, CAMH broth, 20 μM Apo-Transferrin, 37° C., 18 hours, read-out: Minimum Inhibitory Concentrations, EC (URMC-3)
Method: as §2, §3, §4, §5, §6, §7, §8

EC(ATCC NDM-1) = assay: MIC determination; format: cell-based, Escherichia coli; details: Escherichia coli, CAMH broth, 20 μM Apo-Transferrin, 37° C., 18 hours, read-out: Minimum Inhibitory Concentrations, EC(ATCC NDM-1)
Method: as §2, §3, §4, §5, §6, §7, §8

EC(JMI OXA-48) = assay: MIC determination; format: cell-based, Escherichia coli; details: Escherichia coli, CAMH broth, 20 μM Apo-Transferrin, 37° C., 18 hours, read-out: Minimum Inhibitory Concentrations, EC(JMI OXA-48)
Method: as §2, §3, §4, §5, §6, §7, §8

EC(KB1 CTX-M-15) = assay: MIC determination; format: cell-based, Escherichia coli; details: Escherichia coli, CAMH broth, 20 μM Apo-Transferrin, 37° C., 18 hours, read-out: Minimum Inhibitory Concentrations, EC(KB1 CTX-M-15)
Method: as §2, §3, §4, §5, §6, §7, §8

EC(KB2 CTX-M-15) = assay: MIC determination; format: cell-based, Escherichia coli; details: Escherichia coli, CAMH broth, 20 μM Apo-Transferrin, 37° C., 18 hours, read-out: Minimum Inhibitory Concentrations, EC(KB2 CTX-M-15)
Method: as §2, §3, §4, §5, §6, §7, §8

KP (ATCC KPC-3) = assay: MIC determination; format: cell-based, Klebsiella pneumoniae; details: CAMH broth, 20 μM Apo-Transferrin, 37° C., 18 hours
Method: as §2, §3, §4, §5, §6, §7, §8

KP (GJ 5659 TEM-26) = assay: MIC determination; format: cell-based, Klebsiella pneumoniae; details: CAMH broth, 20 μM Apo-Transferrin, 37° C., 18 hours
Method: as §2, §3, §4, §5, §6, §7, §8

KP (RR -1) = assay: MIC determination; format: cell-based, Klebsiella pneumoniae; details: CAMH broth, 20 μM Apo-Transferrin, 37° C., 18 hours
Method: as §2, §3, §4, §5, §6, §7, §8

KP (URMC-1) = assay: MIC determination; format: cell-based, Klebsiella pneumoniae; details: CAMH broth, 20 μM Apo-Transferrin, 37° C., 18 hours
Method: as §2, §3, §4, §5, §6, §7, §8

KP (URMC-2) = assay: MIC determination; format: cell-based, Klebsiella pneumoniae; details: CAMH broth, 20 μM Apo-Transferrin, 37° C., 18 hours
Method: as §2, §3, §4, §5, §6, §7, §8

KP (URMC-3) = assay: MIC determination; format: cell-based, Klebsiella pneumoniae; details: CAMH broth, 20 μM Apo-Transferrin, 37° C., 18 hours
Method: as §2, §3, §4, §5, §6, §7, §8

KP(GJ 5934 TEM-26) = assay: MIC determination; format: cell-based, Klebsiella pneumoniae; details: CAMH broth, 20 μM Apo-Transferrin, 37° C., 18 hours
Method: as §2, §3, §4, §5, §6, §7, §8

KP(JMI KPC-2) = assay: MIC determination; format: cell-based, Klebsiella pneumoniae; details: CAMH broth, 20 μM Apo-Transferrin, 37° C., 18 hours
Method: as §2, §3, §4, §5, §6, §7, §8

KP(ATCC TEM-10/TEM-12) = format: cell-based, Klebsiella pneumoniae; details: CAMH broth, 20 μM Apo-Transferrin, 37° C., 18 hours
Method: as §2, §3, §4, §5, §6, §7, §8

PM (RR -1) = assay: MIC determination; format: cell-based, Proteus mirabilis; details: CAMH broth, 20 μM Apo-Transferrin, 37° C., 18 hours
Method: as §2, §3, §4, §5, §6, §7, §8

ENC (ATCC NDM-1) = assay: MIC determination; format: cell-based, Enterobacter cloacae; details: CAMH broth, 20 μM Apo-Transferrin, 37° C., 18 hours
Method: as §2, §3, §4, §5, §6, §7, §8

[3] = system: Isogenic E. coli J58 strain carrying IMP-1; assay: MIC determination, isogenic E. coli strains; format: cell-based; details: review of Tables 4-1 and 4-2
Procedure, shortened: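 Broth microdilution in cation-adjusted Mueller-Hinton broth with 20 μM apo-transferrin, compound serially diluted two-fold from 64 μg/mL, against E. coli J53 carrying plasmid-borne IMP-1. Inoculum adjusted to 0.5 McFarland; plates incubated 18 h at 37° C. MIC taken as lowest concentration giving a clear well.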

| SMILES | MIC [1] [µg/mL] | MIC [2] [µg/mL] | Mimimum Inhibitory Concentrations, EC (RR -1) (EC (RR -1)) [microgram/mL] | Mimimum Inhibitory Concentrations, EC (RR -2) (EC (RR -2)) [microgram/mL] | MIC (EC (URMC-1)) [µg/mL] | MIC (EC (URMC-2)) [µg/mL] | MIC (EC (URMC-3)) [µg/mL] | MIC (EC(ATCC NDM-1)) [µg/mL] | MIC (EC(JMI OXA-48)) [µg/mL] | MIC (EC(KB1 CTX-M-15)) [µg/mL] | MIC (EC(KB2 CTX-M-15)) [µg/mL] | Minimum Inhibitory Concentrations, KP (ATCC KPC-3) (KP (ATCC KPC-3)) [microgram/mL] | Minimum Inhibitory Concentrations, KP (GJ 5659 TEM-26) (KP (GJ 5659 TEM-26)) [microgram/mL] | Mimimum Inhibitory Concentrations, KP (RR -1) (KP (RR -1)) [microgram/mL] | Minimum Inhibitory Concentrations, KP (URMC-1) (KP (URMC-1)) [microgram/mL] | Minimum Inhibitory Concentrations, KP (URMC-2) (KP (URMC-2)) [microgram/mL] | Minimum Inhibitory Concentrations, KP (URMC-3) (KP (URMC-3)) [microgram/mL] | Minimum Inhibitory Concentrations, KP(GJ 5934 TEM-26) (KP(GJ 5934 TEM-26)) [microgram/mL] | Minimum Inhibitory Concentrations, KP(JMI KPC-2) (KP(JMI KPC-2)) [microgram/mL] | Minimum Inhibitory Concentrations, KP(ATCC TEM-10/TEM-12) (KP(ATCC TEM-10/TEM-12)) [microgram/mL] | other results |
| --- | --- | --- | --- | --- | --- | --- | --- | --- | --- | --- | --- | --- | --- | --- | --- | --- | --- | --- | --- | --- | --- |
| CC(C)(O/N=C(\C(=O)N[C@@H]1C(=O)N2C(C(=O)O)=C(C=Cc3ccc(C[n+]4ccc(-c5ccc(O)c(O)c5)cc4)cc3)CS[C@H]12)c1csc(N)n1)C(=O)O (mixture of isomers) [Compound 412, 1-(4-((E/Z)-2-((6R,7R)-7-((Z)-2-(2-aminothiazol-4-yl)-2-(((2-carboxypropan-2-yl)oxy)imino)acetamido)-2-carboxy-8-oxo-5-thia-1-azabicyclo[4.2.0]oct-2-en-3-yl)vinyl)benzyl)-4-(3,4-dihydroxyphenyl)pyridin-1-ium] | 1 | 2 | 0.25 | ≤0.06 | 0.25 | 4 | ≤ 0.06 | > 64 | 2 | 16 | 32 | >64 | 2 | 0.5 | ≤0.06 | ≤0.06 | 0.25 | 0.5 | 64 | 32 | Mimimum Inhibitory Concentrations, PM (RR -1) (PM (RR -1)): ≤0.06 microgram/mL; Mimimum Inhibitory Concentrations, ENC (ATCC NDM-1) (ENC (ATCC NDM-1)): >64 microgram/mL |
| CC(C)(O/N=C(\C(=O)N[C@@H]1C(=O)N2C(C(=O)O)=C(C=Cc3ccc(C[N+]4(C)Cc5cc(O)c(O)c(Cl)c5C4)cc3)CS[C@H]12)c1csc(N)n1)C(=O)O (mixture of isomers) [Compound 432, 2-(4-((E/Z)-2-((6R,7R)-7-((Z)-2-(2-aminothiazol-4-yl)-2-(((2-carboxypropan-2-yl)oxy)imino)acetamido)-2-carboxy-8-oxo-5-thia-1-azabicyclo[4.2.0]oct-2-en-3-yl)vinyl)benzyl)-4-chloro-5,6-dihydroxy-2-methylisoindolin-2-ium] | 0.5 | 1 | ≤0.06 | ≤0.06 | 0.5 | ≤ 0.06 | 0.13 | > 64 | 0.5 | 1 | 1 | >64 | 1 | 0.25 | 0.13 | ≤0.06 | ≤0.06 | 0.13 | 64 | 8 | Mimimum Inhibitory Concentrations, PM (RR -1) (PM (RR -1)): ≤0.06 microgram/mL; Mimimum Inhibitory Concentrations, ENC (ATCC NDM-1) (ENC (ATCC NDM-1)): >64 microgram/mL; MICs for an E. coli strain carrying the gene for carbapenemase IMP-1, in words [3]: low microgram/mL MICs |

Reference: US20190100534A1, “Cephem Compounds with Latent Reactive Groups” (Gladius Pharmaceuticals, Inc., priority 2017, published 2019)
